Laboratory results as given in PMC10317887, “Hypoglycaemia frequency and physiological response after double or triple doses of once-weekly insulin icodec vs once-daily insulin glargine U100 in type 2 diabetes: a randomised crossover trial” (Diabetologia, 2023).
Read-outs that look alike come from different tables or passages of the source.

What was measured:
type 1 diabetes = settings: cited from earlier work
Description: In addition, the low insulin receptor binding affinity of icodec contributes to its long half-life by reducing the clearance rate, as insulin is mainly cleared by internalisation following binding to and activation of the insulin receptor [9, 10]. In case of excess amounts of icodec throughout the body, e.g ...

[1] = test system: individuals with type 2 diabetes; assay type: in vivo, human; settings: for Mean PGnadir, estimated geometric mean: all participants; for Time to recovery from PGnadir to PG5.5 mmol/l, estimated geometric mean: constant i.v. glucose 5.5 mg kg^−1 min^−1; for Time to recovery from PGnadir to PG5.5 mmol/l, estimated geometric mean / Glucose needed from PGnadir to PG5.5 mmol/l, estimated geometric mean: individuals with PG <3.3 mmol/l at initiation of recovery; for Time to decline from PG5.5 mmol/l to PG3.9 mmol/l, estimated geometric mean: individuals with PG decline to <3.0 mmol/l and/or hypoglycaemia symptoms; for Time to decline from PG5.5 mmol/l to PG3.0 mmol/l, estimated geometric mean: individuals with PG decline to <3.0 mmol/l; for Mean PGnadir in the subgroup analysis: subgroup PGnadir <3.0 mmol/l and/or symptoms
Protocol: During the two treatment periods, participants received once-weekly icodec for 6 weeks or once-daily glargine U100 for 11 days in randomised order. […] Treatment periods were separated by 35–49 days of washout following icodec and 4–11 days of washout following glargine U100. Icodec (4200 nmol/ml; Novo Nordisk, Bagsværd, Denmark) was administered s.c. in the left thigh at 20:00 hours by qualified site staff using a NovoPen 4 pen injector (Novo Nordisk). […] At the start of week 1, a one-time additional 100% icodec dose was administered to accelerate time to steady state, followed by a normal dose at week 2, a double dose at week 3 (prior to hypoglycaemia induction), no dose at week 4 (due to the double dose given the week before), a normal dose at week 5, and a triple dose at week 6 (prior to hypoglycaemia induction). Insulin glargine U100 (100 U/ml [600 nmol/ml]; Sanofi, Paris, France) was administered s.c. in the right thigh at 09:00 hours by qualified site staff using a SoloStar pen injector (Sanofi). A normal dose of once-daily glargine U100 was established during run in. Glargine U100 was administered at a normal dose for 3 days followed by a double dose on day 4 (prior to hypoglycaemia induction), no dose on day 5 (due to the double dose given the day before), then a normal dose for 5 days, and a triple dose on day 11 (prior to hypoglycaemia induction).
Hypoglycaemia induction was carried out during weeks 3 (double dose) and 6 (triple dose) for icodec and on days 4 (double dose) and 11 (triple dose) for glargine U100 while at steady state. To initiate hypoglycaemia induction, participants should not have experienced hypoglycaemia (PG <3.9 mmol/l) within 24 h or have any relevant medical condition that could confound the outcomes or pose unacceptable risk to the participant. Hypoglycaemia induction (Fig. 1b) was initiated at 16:00 hours 2 days after double/triple icodec dosing (44 h post dose) and on the day of double/triple glargine U100 dosing (7 h post dose). These timings were selected since they approximated the expected time of maximum glucose-lowering effect for both insulin products based on pharmacokinetic/pharmacodynamic modelling performed prior to the trial. For 7.5 h prior to hypoglycaemia induction, PG was kept at 5.5 mmol/l by variable i.v. infusion of glucose (20% wt/vol) or human soluble insulin (100 U/ml in 99.6 ml saline [154 mmol/l NaCl]). PG was measured by a Super GL2 Glucose Analyzer (Dr. Müller Gerätebau, Freital, Germany). Insulin infusion was terminated 60 min prior to hypoglycaemia induction at the latest. PG was maintained at 5.5 mmol/l±20% from 60 min to 30 min prior to hypoglycaemia induction and at 5.5 mmol/l±10% during the last 30 min prior to hypoglycaemia induction. Hypoglycaemia induction was initiated by terminating glucose infusion, thereby allowing PG to decline towards the minimum (nadir) PG target level of no less than 2.5 mmol/l. The handling of alternative scenarios, e.g. PGnadir >2.5 mmol/l, slow PG decline towards hypoglycaemia or slow recovery from hypoglycaemia, is described in electronic supplementary material (ESM) Methods. The investigator recorded if the PGnadir was <3.0 mmol/l or ≥3.0 mmol/l with hypoglycaemic symptoms. The PGnadir level was maintained for 15 min by variable i.v. glucose as needed. Subsequently, euglycaemia was restored by constant i.v. glucose (5.5 mg kg^−1 min^−1) until PG was 5.5 mmol/l, which was maintained until the next morning (between 07:00 hours and 09:00 hours) by variable i.v. glucose. During hypoglycaemia induction, participants remained fasted (except for water ad libitum) and stayed in a supine or semi-supine position (except when cognitive tests were performed). Participants stayed at the clinical site for at least 12 h following each hypoglycaemia induction experiment. […]

[2] = test system: individuals with type 2 diabetes; assay: Hypoglycaemia awareness question 'Do you feel hypo?' during hypoglycaemia induction; assay type: in vivo, human; settings: subgroup
Protocol: Hypoglycaemia awareness was determined by asking the question, ‘Do you feel hypo?’, to the participant.

glucagon = assay: Counterregulatory hormone response: plasma glucagon (ELISA); assay type: in vivo, human; settings: plasma, subgroup
Protocol: (§1) Plasma concentrations of glucagon were measured by an enzyme-linked immunosorbent assay (Mercodia AB, Uppsala, Sweden). Plasma concentrations of adrenaline (epinephrine) and noradrenaline (norepinephrine) were measured by liquid chromatography-mass spectrometry (Thermo Fisher Scientific, Dreieich, Germany). Serum concentrations of cortisol and growth hormone were measured by electrochemiluminescent immunoassays (Roche Diagnostics, Mannheim, Germany).

adrenaline (epinephrine) = assay: Counterregulatory hormone response: plasma adrenaline (LC-MS); assay type: in vivo, human; settings: plasma, subgroup
Protocol: as §1

[3] = test system: noradrenaline (norepinephrine); assay: Counterregulatory hormone response: plasma noradrenaline (LC-MS); assay type: in vivo, human; settings: plasma, subgroup
Protocol: as §1

cortisol = assay: Counterregulatory hormone response: serum cortisol (electrochemiluminescent immunoassay); assay type: in vivo, human; settings: serum, subgroup; for Cortisol at PGnadir, estimated geometric mean: n=19 icodec
Protocol: as §1

growth hormone = assay: Counterregulatory hormone response: serum growth hormone (electrochemiluminescent immunoassay); assay type: in vivo, human; settings: serum, subgroup; for Growth hormone at PGnadir, estimated geometric mean: n=19 icodec
Protocol: as §1

[4] = test system: individuals with type 2 diabetes; settings: in vivo
Description: Safety assessments during the trial included adverse events (AEs), hypoglycaemic episodes (other than those induced), vital signs (other than those assessed during hypoglycaemia induction), electrocardiograms, physical examinations and clinical laboratory assessments (haematology, biochemistry and urinalysis).
AEs and hypoglycaemic episodes (other than those induced) during the treatment periods were summarised. The end of each treatment period was defined as 7 days after the last icodec dose and 2 days after the last glargine U100 dose. […] Hypoglycaemic episodes were classified as level 1 (PG <3.9 mmol/l and ≥3.0 mmol/l), level 2 (PG <3.0 mmol/l) and level 3 (severe cognitive impairment requiring assistance for recovery) [20].

[5] = double dose, n=15 icodec, 13 glargine U100
[6] = double dose, n=20 icodec, 19 glargine U100
[7] = double dose, n=17 icodec, 15 glargine U100
[8] = triple dose, n=18 icodec, 22 glargine U100
[9] = triple dose, n=20 icodec, 29 glargine U100
[10] = triple dose, n=20 icodec, 28 glargine U100

Substance: insulin degludec
- Participants with clinically significant hypoglycaemia (type 1 diabetes; type 1 diabetes, triple doses, ref [8], [24]): almost all participants

Substance: insulin detemir
- Participants with clinically significant hypoglycaemia (type 1 diabetes; in vivo): 78%

Substance: insulin glargine U100
- Time to full recovery from hypoglycaemia ([1]; constant i.v. glucose infusion at 5.5 mg kg^−1 min^−1, double and triple doses): ≤ 30 min
- Mean PGnadir, estimated geometric mean ([1]; double dose, n=43 icodec, 42 glargine U100): 3.3 mmol/L
- Time to recovery from PGnadir to PG5.5 mmol/l, estimated geometric mean [1, 5]: 21.0 min
- Glucose needed from PGnadir to PG5.5 mmol/l, estimated geometric mean [1, 5]: 111 mg/kg
- Time to decline from PG5.5 mmol/l to PG3.9 mmol/l, estimated geometric mean [1, 6]: 1.1 h
- Time to decline from PG5.5 mmol/l to PG3.0 mmol/l, estimated geometric mean [1, 7]: 4.5 h
- Mean PGnadir in the subgroup analysis ([1]; double dose): 2.9 mmol/L
- Mean PGnadir, estimated geometric mean ([1]; triple dose, n=38 icodec, 40 glargine U100): 2.9 mmol/L
- Time to recovery from PGnadir to PG5.5 mmol/l, estimated geometric mean [1, 8]: 23.3 min
- Glucose needed from PGnadir to PG5.5 mmol/l, estimated geometric mean [1, 8]: 115 mg/kg
- Time to decline from PG5.5 mmol/l to PG3.9 mmol/l, estimated geometric mean [1, 9]: 0.7 h
- Time to decline from PG5.5 mmol/l to PG3.0 mmol/l, estimated geometric mean [1, 10]: 2.2 h
- Mean PGnadir in the subgroup analysis ([1]; triple dose): 2.7 mmol/L
- Proportion of individuals answering 'Yes' to 'Do you feel hypo?' ([2]; double dose, at PG3.0 mmol/l, n=9/17 icodec, 2/15 glargine U100): 13.3%
- Proportion of individuals answering 'Yes' to 'Do you feel hypo?' ([2]; double dose, at PGnadir, n=14/20 icodec, 10/19 glargine U100): 52.6%
- Proportion of individuals answering 'Yes' to 'Do you feel hypo?' ([2]; triple dose, at PG3.0 mmol/l, n=5/20 icodec, 8/28 glargine U100): 28.6%
- Proportion of individuals answering 'Yes' to 'Do you feel hypo?' ([2]; triple dose, at PGnadir, n=9/20 icodec, 15/29 glargine U100): 51.7%
- Glucagon at PG3.0 mmol/l, estimated geometric mean (glucagon; [7]): 47.7 ng/L
- Glucagon at PGnadir, estimated geometric mean (glucagon; double dose, n=19 icodec, 19 glargine U100): 53.1 ng/L
- Glucagon at PG3.0 mmol/l, estimated geometric mean (glucagon; [10]): 51.6 ng/L
- Glucagon at PGnadir, estimated geometric mean (glucagon; [9]): 59.1 ng/L
- Adrenaline at PG3.0 mmol/l, estimated geometric mean (adrenaline (epinephrine); [7]): 528.3 pmol/L
- Adrenaline at PGnadir, estimated geometric mean (adrenaline (epinephrine); [6]): 590.9 pmol/L
- Adrenaline at PG3.0 mmol/l, estimated geometric mean (adrenaline (epinephrine); [10]): 312.2 pmol/L
- Adrenaline at PGnadir, estimated geometric mean (adrenaline (epinephrine); [9]): 570.9 pmol/L
- Noradrenaline at PG3.0 mmol/l, estimated geometric mean [3, 7]: 853.0 pmol/L
- Noradrenaline at PGnadir, estimated geometric mean [3, 6]: 907.4 pmol/L
- Noradrenaline at PG3.0 mmol/l, estimated geometric mean [3, 10]: 843.0 pmol/L
- Noradrenaline at PGnadir, estimated geometric mean [3, 9]: 890.5 pmol/L
- Cortisol at PG3.0 mmol/l, estimated geometric mean (cortisol; [7]): 153.8 nmol/L
- Cortisol at PGnadir, estimated geometric mean (cortisol; double dose, 19 glargine U100): 300.3 nmol/L
- Cortisol at PGnadir, estimated geometric mean (cortisol; triple dose, 29 glargine U100): 197.6 nmol/L
- Cortisol at PG3.0 mmol/l, estimated geometric mean (cortisol; [10]): 122.9 nmol/L
- Growth hormone at PG3.0 mmol/l, estimated geometric mean (growth hormone; [7]): 4.1 µg/L
- Growth hormone at PGnadir, estimated geometric mean (growth hormone; double dose, 19 glargine U100): 3.5 µg/L
- Growth hormone at PGnadir, estimated geometric mean (growth hormone; triple dose, 29 glargine U100): 3.5 µg/L
- Growth hormone at PG3.0 mmol/l, estimated geometric mean (growth hormone; [10]): 2.4 µg/L
- AE rate [4]: 21.3 AEs per participant-year of exposure
- Duration of level 2 hypoglycaemic episodes, mean±SD [4]: 37.7 ± 15.0 min
- Number of AEs reported [4]: 33 AEs
- Rate of clinically significant hypoglycaemic episodes (level 2, PG <3.0 mmol/l) [4]: 3.0 episodes per participant-year of exposure
- Severe hypoglycaemic episodes (level 3) [4]: no severe hypoglycaemic episodes
- Participants with clinically significant hypoglycaemia (type 1 diabetes; in vivo): almost all participants

Substance: neutral protamine Hagedorn insulin
- Participants with clinically significant hypoglycaemia (type 1 diabetes; in vivo): 78%
